Calls of active or inactive are those of the source. No rule for the calls is given here.
Tested on: CCRIS mutagenicity, Ames/micronucleus/aberration tests
Test: CCRIS mutagenicity studies
Settings: Test System: AMES SALMONELLA TYPHIMURIUM; Strain/Indicator: TA1537; Metabolic Activation: NONE; Method: STANDARD PLATE

CN(C)CCNC(=O)c1cccc2nc(-c3ccccc3)oc12
mutagenic call: inactive; negative
